According to patent US20250136997A1, “COMPOSITIONS FOR SEQUESTERING ISOAMYL AMINE AND METHODS OF USE THEREFOR” (University of Louisville Research Foundation, Inc., priority 2023, published 2025):

Tests used:
[1] = Interaction of S100p1-G and metabolite: streptavidin pull-down from BV2 cells and LC-MS; type: cell-based, mouse
Procedure: Interaction of S100p1-G and metabolite. Microglial BV2 cells (2×10^6) were transfected with biotinylated oligo S100p1-G or mutant using Lipofectamin RNAiMAX Reagent (Thermo Fisher) according to the manufacturer's instructions overnight at 37° C. […] of aged mouse fecal supernatant (from one-gram feces) was added into the cell growth medium. After six hours, the cells were collected in RIPA lysis buffer. […] of cell lysate was incubated with […] of DYNABEADS® Streptavidin beads (Thermo Fisher) at room temperature for 1 h. The bio-oligo complex was eluted with biotin (4 mg/ml)) in 25 mM Tris-HCL containing 0.3 M NaCl (PH 8.5) at 95° C. for 5 minutes. Metabolite analysis was performed with LC-MS.

[2] = HPLC analysis of IAA and CA in serum and cerebrospinal fluid (CSF) of mice; type: in vivo, mouse
microglia = test: S100A8 and cleaved caspase-3 in brain microglia of treated mice (qPCR, western blot); type: in vivo, mouse
Procedure: Isolation of microglia, neuron, astrocytes, and oligodendrocytes from the brain. Mice were anaesthetized with a mixture of ketamine (16%) and xylazine (3%) by intraperitoneal injection and then sacrificed under basal conditions by transcardial perfusion with perfusion buffer (Ca^2+/Mg^2+ free HBSS containing 0.5 mM EGTA, 10 mM HEPES and 4.2 mM NaHCO3; pH 7.2). The perfused brain was removed and gently mechanically disaggregated with tweezers in dissociation buffer (HBSS containing 10 mM HEPES and 4.2 mM NaHCO3 supplemented with Type I collagenase (0.05%), Dispase II (25 mg/ml), DNase I (2.5 mg/ml), trypsin inhibitor ([…]); pH 7.5) followed by incubation at 37° C. for 1 hour. The tissue homogenate was centrifuged at 1,350×g for 5 minutes at 4° C. […]
Quantitative Real-Time PCR (qPCR) analysis of mRNA expression. […] For analysis of gene mRNA expression, […] of total RNA was reverse transcribed by SuperScript III reverse transcriptase (Invitrogen) and quantitation was performed using primers (Eurofins) with SSOADVANCED™ Universal SYBR Green Supermix (BioRad); GAPDH was used for normalization. […] Analysis and fold-change were determined using the comparative threshold cycle (Ct) method. […] Setting the expression value of GAPDH to 1.0, the relative expression values were calculated as […]. The change in mRNA expression was calculated as fold-change. […]

[3] = Morris water maze (MWM) test; type: in vivo, mouse
Procedure: Morris water maze (MWM) test. Mice were trained in a 122 cm diameter, 50 cm height open-field water maze with non-reflective interior surfaces. The pool water was filled with water maintained at 25±1° C. and mixed with non-toxic white tempera paint. Distinctive and extra-maze cues were marked on the wall at specific locations and were visible to the mice in the maze. Mice were removed from cages, placed into the water from quasi-random start points and allowed a maximum of 60 seconds to probe the escape platform. The inter interval of each trail remained for 15 seconds. For four consecutive days, four trials (training) were recorded each day with a final test on day 5 (FIG. 4A). Performance was evaluated by the mean escape latencies base on every training trial (Vorhees and Williams, 2006).

[4] = T-maze spontaneous alternation (TMSA) test; type: in vivo, mouse; details: IAA to young mice
Procedure: T-maze test. To evaluate the cognitive impairment without requirement of full motor function, modified T-Maze test (Deacon and Rawlins, 2006) was carried out. Mice were gently handled, habituated to the T-Maze apparatus, and subjected to food deprivation. On the forced alternation sample trial (T1), the animals were exposed to the T-maze with one of the arms opened and rewarded with pellet at end of the arm. The opposite arm was blocked by a guillotine door. The mouse was allowed to explore the open arm and consume the reward. Ten consecutive trials were performed, then the mouse was removed. After 30 min, retrieval testing (T2) was performed. The blocked arm was opened and the mouse was placed in the same start position. […] If the mouse entered the same arm as in T1, the mouse was confined for 10 seconds and this response was marked as an “Error”. Each mouse was subjected to 10 consecutive runs. Forced Alternation [%] was defined as the percent of mice first entering the novel arm during T2. […] The three- or four-day intersession interval is used to assess recognition memory performances.

[5] = IAA to young mice, phage to aged mice, oral gavage two months

Molecule	IAA recruited to the oligo complex (LC-MS after pull-down) ([1]; microglial cells, gut fecal supernatant, 6 h, biotinylated oligo)	IAA in CSF (HPLC) ([2]; aged mice, intravenous oligo, twice a week for 2 months)	expression of S100A8 and cleaved caspase-3 in microglia cells (qPCR, western blot) (microglia; young mice, gavage every other day for 2 months)	memory and spatial learning (MWM) ([3]; aged mice, intravenous, twice a week for 2 months)	metabolite within the Bio-S100p1-G complex (LC-MS) ([1]; cell lysates)	pass through the blood-brain barrier (BBB) ([2]; aged mice, serum and CSF, gut-derived metabolite)	IAA level in the serum (HPLC) ([2]; young mice gavage-given IAA, aged mice gavage-given phage^TSD-27)	S100A8 and cleaved caspase-3 in the microglia (microglia; all five major regions of the brain, IAA oral gavage)	deficit of spatial learning in the TMSA (percentage of correct choices) ([4]; phage to aged mice)	percentage of alternating choices (exploring new arm), TMSA ([4]; phage^TSD-27 to aged mice)	swim speeds in MWM ([3]; IAA (0.5 g/kg) to young mice, phage^TSD-27 (1×10^9 pfu/mouse) to aged mice, oral gavage every other day, two months)	latency time to reach the platform in MWM [3, 5]	memory and learning (normalized test path length, MWM) [3, 5]
S100p1-G: CTGTGGGCAG CTGGCCAAGC (SEQ ID NO: 8), S100A8 promoter −57 . . . −38 (DNA CTGTGGGCAGCTGGCCAAGC; chemistry not given here)	recruited	decline	prevented	recovered									
CC(C)CCN [IAA, isoamylamine]					only IAA interacts with S100p1-G	higher amounts than CA	increased	induced	induced the deficit	reduced young mice exploring the new path	reduced	induced	induced the memory and learning loss
